Test results reported in patent US4133805A, “Cyclic undecapeptides related to somatostatin and intermediates therefor” (American Home Products Corporation, priority 1975, dated 1979).

Tests used:
Format in all cases: in vivo, Albino male rats
[1] = system: insulin; test: Test Procedure II: arginine-stimulated plasma insulin in nembutal-treated rats
Procedure: (§1) Albino male rats are arranged in three groups (nine rats/group) and injected i.p. with nembutal at 50 mg/kg. Fifteen minutes after the nembutal injection they are injected s.c. according to group with (a) test compound, typically 500-2000 μg/kg; (b) SRIF 200 μg/kg; or (c) physiological saline. Ten minutes later 0.5 ml. of arginine (300 mg/ml, pH 7.2) is injected into the heart. The rats are decapitated five minutes after receiving the arginine, and the blood is collected into Trasylol-EDTA. Appropriate aliquots are then assayed for growth hormone, glucagon and insulin. […] Comparisons between control and experimental values are statistically evaluated by the analysis of variants method and statistical significance (p) at 0.05 or lower is used as the index of activity.

[2] = system: growth hormone; test: Test Procedure II: arginine-stimulated plasma growth hormone in nembutal-treated rats; conditions: p = <0.01
Procedure: as §1

[3] = system: glucagon; test: Test Procedure II: arginine-stimulated plasma glucagon in nembutal-treated rats
Procedure: as §1

C[C@H](N)C(=O)NCC(=O)N[C@H]1CSSC[C@@H](C(=O)O)NC(=O)[C@H](CO)NC(=O)[C@H]([C@@H](C)O)NC(=O)[C@H](Cc2ccccc2)NC(=O)[C@H]([C@@H](C)O)NC(=O)[C@H](CCCCN)NC(=O)[C@H](Cc2c[nH]c3ccccc23)NC(=O)[C@H](Cc2ccccc2)NC(=O)[C@H](Cc2ccccc2)NC(=O)[C@H](CC(N)=O)NC(=O)[C@H](CCCCN)NC1=O [SRIF, somatostatin]
Insulin ([1]; 200 μg/kg s.c., control 167 ± 12, p = <0.01): 117 ± 12 μ units/ml | Insulin ([1]; 0.2 mg/kg s.c., control 151 ± 15, p = <0.05): 111 ± 10 μ units/ml | GH ([2]; 10 μg/kg s.c., control 543 ± 86): 241 ± 15 ng/mL | GH ([2]; 20 μg/kg s.c., control 619 ± 103): 232 ± 87 ng/mL | GH ([2]; 0.2 mg/kg s.c., control 287 ± 53): 65 ± 16 ng/mL | Glucagon ([3]; 200 μg/kg s.c., control 62 ± 8, p = <0.01): 13 ± 4 pg/mL | Glucagon ([3]; 0.2 mg/kg s.c., control 20 ± 1, p = <0.05): 12 ± 3 pg/mL
